Data from patent publication US20230141101A1, “PDE4 INHIBITOR COMPOUND AND MEDICAL USE THEREOF” (Suzhou Longbotai Pharmaceuticals Co., Ltd., priority 2020, published 2023).

How the values were obtained:
Assay type in all cases: biochemical
Conditions in all cases: 20 nM
[1] = biological target: T1, PDE4A1A (Homo sapiens, UniProt P27815); experiment: PDE4 inhibitory activity assay (FAM-cAMP enzymatic reaction), PDE4A1A
T1 construct: purchased BPS 60040
Summary of the method: (§1)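 Human PDE4A1A, PDE4B1 or PDE4D2 preincubated with compound 15 min at room temperature, then FAM-cAMP substrate added; reaction 30 min at room temperature before stop solution and further 60 min. Fluorescence read on multilabel counter; IC50 fitted from inhibition rates.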

[2] = biological target: PDE4D2 (Homo sapiens, UniProt Q08499); experiment: PDE4 inhibitory activity assay (FAM-cAMP enzymatic reaction), PDE4D2
PDE4D2, sequence (Q08499 303-809): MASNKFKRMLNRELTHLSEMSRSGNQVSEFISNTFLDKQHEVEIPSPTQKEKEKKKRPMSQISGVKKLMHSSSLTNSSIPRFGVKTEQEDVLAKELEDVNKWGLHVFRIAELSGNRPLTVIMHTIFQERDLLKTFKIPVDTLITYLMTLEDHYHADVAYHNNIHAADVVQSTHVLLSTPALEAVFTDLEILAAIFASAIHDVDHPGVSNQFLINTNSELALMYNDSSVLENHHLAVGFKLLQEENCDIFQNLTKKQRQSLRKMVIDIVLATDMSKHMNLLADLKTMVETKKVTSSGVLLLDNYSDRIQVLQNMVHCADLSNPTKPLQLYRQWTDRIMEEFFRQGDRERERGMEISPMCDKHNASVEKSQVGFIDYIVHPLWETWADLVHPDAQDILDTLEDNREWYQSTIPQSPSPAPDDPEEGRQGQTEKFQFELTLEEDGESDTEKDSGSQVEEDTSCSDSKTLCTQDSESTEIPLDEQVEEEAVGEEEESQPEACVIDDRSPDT
Summary of the method: as §1

[3] = biological target: T2, PDE4B1 (Homo sapiens, UniProt Q07343); experiment: PDE4 inhibitory activity assay (FAM-cAMP enzymatic reaction), PDE4B1
T2 construct: purchased BPS 60041
T2 sequence (Q07343 whole entry): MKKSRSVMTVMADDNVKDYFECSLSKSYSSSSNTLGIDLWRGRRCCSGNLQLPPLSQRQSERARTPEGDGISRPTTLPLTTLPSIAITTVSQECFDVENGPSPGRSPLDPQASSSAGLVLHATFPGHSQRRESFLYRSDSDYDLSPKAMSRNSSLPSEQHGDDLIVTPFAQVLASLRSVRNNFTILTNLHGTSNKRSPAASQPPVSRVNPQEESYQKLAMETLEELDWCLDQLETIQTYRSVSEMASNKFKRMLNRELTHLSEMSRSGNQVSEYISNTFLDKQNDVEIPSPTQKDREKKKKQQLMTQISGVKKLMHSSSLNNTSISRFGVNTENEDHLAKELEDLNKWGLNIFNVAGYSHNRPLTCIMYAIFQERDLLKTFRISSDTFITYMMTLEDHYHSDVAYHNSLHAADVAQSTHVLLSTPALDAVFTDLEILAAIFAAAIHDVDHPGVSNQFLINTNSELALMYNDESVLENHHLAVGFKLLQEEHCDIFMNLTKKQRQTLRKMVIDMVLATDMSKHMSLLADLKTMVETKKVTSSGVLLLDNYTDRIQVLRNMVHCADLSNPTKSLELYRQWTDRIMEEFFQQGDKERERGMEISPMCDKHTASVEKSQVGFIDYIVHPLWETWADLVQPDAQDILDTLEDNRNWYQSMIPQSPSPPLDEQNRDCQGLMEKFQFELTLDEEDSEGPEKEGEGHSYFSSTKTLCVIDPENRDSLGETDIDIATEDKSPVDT
Summary of the method: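 Each isoform is incubated with test compound for 15 min at room temperature before FAM-cAMP substrate starts a 30-min reaction.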

T1 sequence (P27815 1-647 isoform P27815-4): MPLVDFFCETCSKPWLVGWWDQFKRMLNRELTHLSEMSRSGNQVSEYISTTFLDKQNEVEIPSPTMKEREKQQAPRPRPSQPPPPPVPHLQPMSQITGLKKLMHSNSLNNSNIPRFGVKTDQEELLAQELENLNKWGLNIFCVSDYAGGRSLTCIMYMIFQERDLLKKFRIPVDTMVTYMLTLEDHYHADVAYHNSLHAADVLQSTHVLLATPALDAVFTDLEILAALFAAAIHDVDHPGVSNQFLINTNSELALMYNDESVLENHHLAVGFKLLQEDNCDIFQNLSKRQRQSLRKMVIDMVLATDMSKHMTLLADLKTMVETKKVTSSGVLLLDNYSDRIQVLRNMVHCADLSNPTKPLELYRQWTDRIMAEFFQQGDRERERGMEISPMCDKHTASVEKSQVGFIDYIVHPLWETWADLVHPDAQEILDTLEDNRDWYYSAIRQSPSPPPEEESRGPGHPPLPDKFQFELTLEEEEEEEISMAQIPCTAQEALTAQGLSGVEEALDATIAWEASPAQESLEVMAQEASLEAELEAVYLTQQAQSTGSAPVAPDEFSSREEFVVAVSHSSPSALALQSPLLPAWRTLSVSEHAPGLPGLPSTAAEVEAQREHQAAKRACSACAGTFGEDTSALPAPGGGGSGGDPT

CCOc1nc([C@@H](CS(C)(=O)=O)n2c(=O)n(CCOC)c3cc(-c4ccccn4)ccc32)ccc1OC [Ex. 198, (S)-1-(1-(6-ethoxy-5-methoxypyridin-2-yl)-2-(methylsulfonyl)ethyl)-3-(2-methoxyethyl)-5-(pyridin-2-yl)-1H-benzo[d]imidazol-2(3H)-one]
PDE4 A1 inhibitory effect at 20 nM [1]: + | PDE4 D2 inhibitory effect at 20 nM [2]: + | PDE4 B1 inhibitory effect at 20 nM [3]: +

CCOc1nc([C@@H](CS(C)(=O)=O)n2c(=O)[nH]c3cc(-c4ccccc4)cnc32)ccc1OC [Ex. 76, (S)-3-(1-(6-ethoxy-5-methoxypyridin-2-yl)-2-(methylsulfonyl)ethyl)-6-phenyl-1H-imidazo[4,5-b]pyridin-2(3H)-one]
PDE4 A1 inhibitory effect at 20 nM [1]: + | PDE4 D2 inhibitory effect at 20 nM [2]: + | PDE4 B1 inhibitory effect at 20 nM [3]: +

CCOc1nc([C@@H](CS(C)(=O)=O)n2c(=O)[nH]c3cc(C(=O)OCC(F)(F)F)ccc32)ccc1OC [Ex. 214, (S)-2,2,2-trifluoroethyl 1-(1-(6-ethoxy-5-methoxypyridin-2-yl)-2-(methylsulfonyl)ethyl)-2-oxo-2,3-dihydro-1H-benzo[d]imidazole-5-carboxylate]
PDE4 A1 inhibitory effect at 20 nM [1]: + | PDE4 D2 inhibitory effect at 20 nM [2]: + | PDE4 B1 inhibitory effect at 20 nM [3]: +

CCOc1nc([C@@H](CS(C)(=O)=O)n2c(=O)n(CC(F)F)c3c(C)c(-c4ccccc4F)cnc32)ccc1OC [Ex. 56, (S)-1-(2,2-difluoroethyl)-3-(1-(6-ethoxy-5-methoxypyridin-2-yl)-2-(methylsulfonyl)ethyl)-6-(2-fluorophenyl)-7-methyl-1H-imidazo[4,5-b]pyridin-2(3H)-one]
PDE4 A1 inhibitory effect at 20 nM [1]: + | PDE4 D2 inhibitory effect at 20 nM [2]: + | PDE4 B1 inhibitory effect at 20 nM [3]: +

CCOc1nc([C@@H](CS(C)(=O)=O)n2c(=O)[nH]c3c(C)c(-c4ccccn4)cnc32)ccc1OC [Ex. 17, (S)-3-(1-(6-ethoxy-5-methoxypyridin-2-yl)-2-(methylsulfonyl)ethyl)-7-methyl-6-(pyridin-2-yl)-1H-imidazo[4,5-b]pyridin-2(3H)-one]
PDE4 A1 inhibitory effect at 20 nM [1]: + | PDE4 D2 inhibitory effect at 20 nM [2]: = | PDE4 B1 inhibitory effect at 20 nM [3]: +

CCOc1nc([C@@H](CS(C)(=O)=O)n2c(=O)n(C)c3cc(-c4ccc(F)cc4F)ccc32)ccc1OC [Ex. 157, (S)-5-(2,4-difluorophenyl)-1-(1-(6-ethoxy-5-methoxypyridin-2-yl)-2-(methylsulfonyl)ethyl)-3-methyl-1H-benzo[d]imidazol-2(3H)-one]
PDE4 A1 inhibitory effect at 20 nM [1]: + | PDE4 D2 inhibitory effect at 20 nM [2]: + | PDE4 B1 inhibitory effect at 20 nM [3]: +

CCOc1nc([C@@H](CS(C)(=O)=O)n2c(=O)[nH]c3cc(-c4cccc(OC)c4F)ccc32)ccc1OC [Ex. 183, (S)-5-(2-fluoro-3-methoxyphenyl)-1-(1-(6-ethoxy-5-methoxypyridin-2-yl)-2-(methylsulfonyl)ethyl)-1H-benzo[d]imidazol-2(3H)-one]
PDE4 A1 inhibitory effect at 20 nM [1]: + | PDE4 D2 inhibitory effect at 20 nM [2]: + | PDE4 B1 inhibitory effect at 20 nM [3]: +

CCOc1nc([C@@H](CS(C)(=O)=O)n2c(=O)n(C)c3cc(-c4ccc(C)cc4C)ccc32)ccc1OC [Ex. 163, (S)-5-(2,4-dimethylphenyl)-1-(1-(6-ethoxy-5-methoxypyridin-2-yl)-2-(methylsulfonyl)ethyl)-3-methyl-1H-benzo[d]imidazol-2(3H)-one]
PDE4 A1 inhibitory effect at 20 nM [1]: + | PDE4 D2 inhibitory effect at 20 nM [2]: + | PDE4 B1 inhibitory effect at 20 nM [3]: +

CCOc1nc([C@@H](CS(C)(=O)=O)n2c(=O)n(CC(F)(F)F)c3c(C)c(-c4ccccc4C)cnc32)ccc1OC [Ex. 55, (S)-3-(1-(6-ethoxy-5-methoxypyridin-2-yl)-2-(methylsulfonyl)ethyl)-7-methyl-6-(o-methylphenyl)-1-(2,2,2-trifluoroethyl)-1H-imidazo[4,5-b]pyridin-2(3H)-one]
PDE4 A1 inhibitory effect at 20 nM [1]: + | PDE4 D2 inhibitory effect at 20 nM [2]: + | PDE4 B1 inhibitory effect at 20 nM [3]: +

CCOc1nc([C@@H](CS(C)(=O)=O)n2c(=O)[nH]c3c(C)c(-c4ccccc4C(C)C)cnc32)ccc1OC [Ex. 11, (S)-3-(1-(6-ethoxy-5-methoxypyridin-2-yl)-2-(methylsulfonyl)ethyl)-6-(2-isopropylphenyl)-7-methyl-1H-imidazo[4,5-b]pyridin-2(3H)-one]
PDE4 A1 inhibitory effect at 20 nM [1]: + | PDE4 D2 inhibitory effect at 20 nM [2]: + | PDE4 B1 inhibitory effect at 20 nM [3]: +

CCOc1nc([C@@H](CS(C)(=O)=O)n2c(=O)[nH]c3c(C)c(-c4ccc(F)cc4)cnc32)ccc1OC(F)F [Ex. 63, (S)-3-(1-(5-(difluoromethoxy)-6-ethoxypyridin-2-yl)-2-(methylsulfonyl)ethyl)-6-(4-fluorophenyl)-7-methyl-1H-imidazo[4,5-b]pyridin-2(3H)-one]
PDE4 A1 inhibitory effect at 20 nM [1]: + | PDE4 D2 inhibitory effect at 20 nM [2]: + | PDE4 B1 inhibitory effect at 20 nM [3]: +

CCOc1nc([C@H](CS(C)(=O)=O)N2C(=O)c3csc(NC(C)=O)c3C2=O)ccc1OC [Ex. 225, (R)—N-(5-(1-(6-ethoxy-5-methoxypyridin-2-yl)-2-(methylsulfonyl)ethyl)-4,6-dioxo-5,6-dihydro-4H-thieno[3,4-c]pyrrol-1-yl)acetamide]
PDE4 A1 inhibitory effect at 20 nM [1]: − | PDE4 D2 inhibitory effect at 20 nM [2]: − | PDE4 B1 inhibitory effect at 20 nM [3]: −

CCOc1nc([C@@H](CS(C)(=O)=O)n2c(=O)[nH]c3cc(-c4cc(C)ccc4F)ccc32)ccc1OC [Ex. 175, (S)-5-(2-fluoro-5-methylphenyl)-1-(1-(6-ethoxy-5-methoxypyridin-2-yl)-2-(methylsulfonyl)ethyl)-1H-benzo[d]imidazol-2(3H)-one]
PDE4 A1 inhibitory effect at 20 nM [1]: + | PDE4 D2 inhibitory effect at 20 nM [2]: + | PDE4 B1 inhibitory effect at 20 nM [3]: +

CCOc1nc([C@@H](CS(C)(=O)=O)n2c(=O)n(CC(F)F)c3c(C)c(-c4ccccc4)cnc32)ccc1OC [Ex. 57, (S)-1-(2,2-difluoroethyl)-3-(1-(6-ethoxy-5-methoxypyridin-2-yl)-2-(methylsulfonyl)ethyl)-7-methyl-6-phenyl-1H-imidazo[4,5-b]pyridin-2(3H)-one]
PDE4 A1 inhibitory effect at 20 nM [1]: + | PDE4 D2 inhibitory effect at 20 nM [2]: + | PDE4 B1 inhibitory effect at 20 nM [3]: +

CCOc1nc([C@@H](CS(C)(=O)=O)n2c(=O)n(C)c3cc(-c4ccc(F)cc4OC)cnc32)ccc1OC [Ex. 120, (S)-6-(4-fluoro-2-methoxyphenyl)-3-(1-(6-ethoxy-5-methoxypyridin-2-yl)-2-(methylsulfonyl)ethyl)-1-methyl-1H-imidazo[4,5-b]pyridin-2(3H)-one]
PDE4 A1 inhibitory effect at 20 nM [1]: + | PDE4 D2 inhibitory effect at 20 nM [2]: + | PDE4 B1 inhibitory effect at 20 nM [3]: +

CCOc1nc([C@H](CS(C)(=O)=O)n2c(=O)[nH]c3cc(-c4ccc(F)cc4)ccc32)ccc1OC [Ex. 136, (R)-1-(1-(6-ethoxy-5-methoxypyridin-2-yl)-2-(methylsulfonyl)ethyl)-5-(4-fluorophenyl)-1H-benzo[d]imidazol-2(3H)-one]
PDE4 A1 inhibitory effect at 20 nM [1]: + | PDE4 D2 inhibitory effect at 20 nM [2]: + | PDE4 B1 inhibitory effect at 20 nM [3]: +

CCOc1nc([C@@H](CS(C)(=O)=O)N2Cc3cccc(NC(=O)CC)c3C2=O)ccc1OC [Ex. 219, (S)—N-(2-(1-(6-ethoxy-5-methoxypyridin-2-yl)-2-(methylsulfonyl)ethyl)-3-oxoisoindolin-4-yl)propionamide]
PDE4 A1 inhibitory effect at 20 nM [1]: + | PDE4 D2 inhibitory effect at 20 nM [2]: + | PDE4 B1 inhibitory effect at 20 nM [3]: +
